The test system of data set [1] is ROS production in whole blood phagocytes. As to the kind of experiment: Luminol-enhanced phagocyte chemiluminescence assay, ROS production in whole blood. To be noted: zymosan activated, luminol probe, mean of triplicate ± SD; for IC50: Homo sapiens. In kind it is cell-based. Here is the method:
(§1) Luminol-enhanced chemiluminescence assay was performed according to the previous reported method. Briefly 25 μL of whole blood or neutrophils (1 × 10^6/mL), suspended in Hank’s solution, were incubated with 25 μL compounds (1, 10, 100 μg/mL for whole blood and 0.5, 5, 50 μg/mL for neutrophils) for 30 min. Zymosan 25 μL (20 mg/mL), followed by 25 μL (7 × 10^-5 M) of luminol was added to make a final volume of 100 μL. A control without the compound was also run. Peak chemiluminescence was recorded using the luminometer. The luminometer was set with repeated scan mode, 50 scans with 30 s intervals and one second point measuring time.

Data set [2] concerns T-cell proliferation (PHA activated human peripheral mononuclear cells, PBMC). As to the kind of experiment: T-cell proliferation inhibition assay (PHA-activated PBMC, tritiated thymidine incorporation). It counts as cell-based. To be noted: PHA (5 μg/mL) stimulated PBMC, 72 h + 18 h thymidine pulse, mean of triplicate ± SD, read-out: IC50, inhibitory effect on T-cell proliferation. Here is the method: Peripheral blood mononuclear cells (PBMC) were isolated from heparinized venous blood of healthy adult donors by Ficoll–Hypaque gradient centrifugation. Cells were proliferated as reported earlier. Briefly, cells were cultured at a concentration of 2 × 10^6/mL in a 96-well round bottom tissue culture plate. Cells were stimulated with 5 μg/mL of phytohemagglutinin. Various concentrations of compounds were added to obtain final concentrations of 0.5, 5, 50 μg/mL, each in triplicate. The plate was incubated for 72 h at 37°C in 5% CO2 environment. After 72 h, cells were pulsed with 0.5 μCi/well, tritiated thymidine, and further incubated for 18 h. Cells were harvested onto a glass fiber filter by using cell harvester. The tritiated thymidine incorporation into the cells, which reflects the proliferation level, was measured by a liquid scintillation counter.
A general note: Incorporation of labelled thymidine or its analogues reports DNA synthesis.

In the next data set the test system is ROS production in PMNs. Description: Luminol-enhanced phagocyte chemiluminescence assay, ROS production in isolated PMNs (neutrophils). In kind it is cell-based. To be noted: Homo sapiens, Neutrophil, zymosan activated, luminol probe, mean of triplicate ± SD. The method, then:
as §1

Another data set relates to T-cells. Details: method as in PMID 11071398. To be noted: by decreasing the activity of T-cells; cited from earlier work.

Some results are limits rather than exact numbers.

As for `C[C@]12CC(=CO)C(=O)C[C@@H]1CC[C@@H]1[C@@H]2CC[C@@]2(C)[C@H]1CC[C@]2(C)O` [Compound 1, 17β-hydroxy-2-(hydroxymethylene)-17α-methyl-5α-androstan-3-one, reference compound], the IC50 was roughly 2 µg/mL in data set [1], 7.5 ± 0.4 µg/mL in data set [2] and 6.3 ± 0.1 µg/mL in the data set with ROS production in PMNs. Further, the “IC50, ROS production (Whole Blood phagocytes)” value in data set [1] (human whole blood) was determined as 2.3 ± 0.0 µg/mL. The “Immunosuppressant activity in vivo” value in the data set with T-cells is “immunosuppressant activity”.
Consider `C[C@]12C=C(CO)C(=O)C[C@@H]1CC[C@@H]1[C@@H]2CC[C@@]2(C)[C@H]1CC[C@]2(C)O` [Compound 2, 17β-Hydroxy-2-(hydroxymethyl)-17α-methyl-5α-androstan-1-en-3-one], for which the IC50 in data set [1] is roughly 2 µg/mL; in data set [2] it was 17.4 ± 1.2 µg/mL.
Consider `C[C@]12C[C@@H](CO)[C@H](O)C[C@@H]1CC[C@@H]1[C@@H]2CC[C@@]2(C)[C@H]1CC[C@@]2(O)CO` [Compound 3, 2α,17α-Di(hydroxymethyl)-5α-androstan-3β-17β-diol], for which the IC50 in data set [1] was greater than 100 µg/mL; in data set [2], 17 ± 1.2 µg/mL; in the data set with ROS production in PMNs, greater than 50 µg/mL.
`CC12CC(O)C(O)CC1CCC1C2CCC2(C)C1CCC2(C)O` (stereo not drawn) [Compound 4, 17α-Methyl-5α-androstan-2α,3β-17β-triol]: the melting point (commonly the temperature of the solid-liquid transition) lay within 124 to 125 °C. Further, the IC50 in data set [1] is greater than 100 µg/mL. The IC50 in data set [2] was 11.8 ± 0.9 µg/mL. For the same molecule, the IC50 in the data set with ROS production in PMNs is greater than 50 µg/mL.
For the molecule `C[C@]12C=C(CO)C(=O)C=C1CC[C@@H]1[C@@H]2CC[C@@]2(C)[C@H]1CC[C@]2(C)O` [Compound 5, 17β-Hydroxy-2-(hydroxymethyl)-17α-methylandrost-1,4-dien-3-one], the melting point lay in the range of 163 to 164 °C. Moreover, the IC50 in data set [1] is greater than 100 µg/mL. For the same molecule, in data set [2], the IC50 came to 31.2 ± 1.9 µg/mL. Also, the IC50 in the data set on ROS production in PMNs was greater than 50 µg/mL.
Consider `C[C@]12C[C@@H](CO)C(=O)C[C@@H]1CC[C@@H]1[C@@H]2CC[C@@]2(C)[C@H]1CC[C@]2(C)O` [Compound 6, 17β-Hydroxy-2α-(hydroxymethyl)-17α-methyl-5α-androstan-3-one], for which the melting point fell in the range of 197 to 199 °C. The IC50 in data set [1] was greater than 100 µg/mL. Moreover, the IC50 in data set [2] amounted to 2.7 ± 0.2 µg/mL. In the data set on ROS production in PMNs, the IC50 is greater than 50 µg/mL.
For `C[C@]12C[C@@H](CO)[C@H](O)C[C@@H]1CC[C@@H]1[C@@H]2CC[C@@]2(C)[C@H]1CC[C@]2(C)O` [Compound 7, 2α-(Hydroxymethyl)-17α-methyl-5α-androstan-3β-17β-diol] the same measures were 279 to 281 °C, 25.6 µg/mL, 10.6 ± 0.4 µg/mL and greater than 50 µg/mL.
As to `CC(C)Cc1ccc(C(C)C(=O)O)cc1` (centres unmarked) [Ibuprofen, reference compound], the IC50 in data set [1] is 11.2 ± 1.9 µg/mL; in the data set with ROS production in PMNs it was 2.5 ± 0.6 µg/mL.
For `C[C@]12C=CC(=O)C=C1CC[C@@H]1[C@@H]2[C@@H](O)C[C@@]2(C)[C@H]1CC[C@]2(O)C(=O)CO` [Prednisolone, reference compound], in data set [2], the IC50 was less than 3.1 µg/mL.

(Values after paper PMC3740782, “Synthesis of some potent immunomodulatory and anti-inflammatory metabolites by fungal transformation of anabolic steroid oxymetholone” (Chemistry Central Journal, 2012).)
